Laboratory results: US20040037022A1, “Aminoalcohol derivatives” (priority 2000, published 2004)

Assays:
[1] = tested on: anesthetized dog; test: Effect on the increase in intravesical pressure induced by carbachol in anesthetized dog; type: in vivo; details: 0.32 mg/kg by intra-duodena route 30 minutes before carbachol (1.8 μg/kg); female Beagle dogs under halothane anesthesia; N = 2; Control 7.0 ± 1.0
Protocol: Effect on the increase in intravesical pressure induced by carbachol in anesthetized dog
Female Beagle dogs weighing 8.0-15.0 kg were fasted for 24 hours and maintained under halothane anesthesia. A 12F Foley catheter was lubricated with water soluble jelly, inserted into the urethral orifice and advanced approximately 10 cm until the balloon tip was placed well inside the bladder. The balloon was then inflated with 5 ml of room air and catheter slowly withdrawn just part the first resistance that is felt at the bladder neck. Urine was completely drained out through the catheter, and 30 ml of biological saline was infused. The catheter was connected to pressure transducer, and intravesical pressure was continuously recorded. The test compound was injected by intra-duodena route at 30 minutes before the administration of carbachol (1.8 μg/kg).

| melting point | Structure (SMILES) | Increase in intravesical pressure [1] |
| --- | --- | --- |
| 124 to 125 °C | O=C(Nc1ccc(C[C@@H](CO)NC[C@H](O)COc2ccccc2)cc1)c1ccccc1 [4-(2), N-[4-[(2S)-3-Hydroxy-2-[[(2S)-2-hydroxy-3-phenoxypropyl)amino]propyl]phenyl)benzamide] |  |
| 115 to 116 °C | CN(C(=O)c1ccccc1)c1ccc(C[C@@H](CO)NC[C@H](O)COc2ccccc2)cc1 [4-(11), N-[4-[(2S)-3-Hydroxy-2-[[(2S)-2-hydroxy-3-phenoxypropyl]amino]propyl]phenyl]-N-methylbenzamide] |  |
| 129 to 130 °C | CCNC(=O)Nc1ccc(C[C@@H](CO)NC[C@H](O)COc2ccccc2)cc1 [Example 2, N-ethyl-N′-[4-[(2S)-3-hydroxy-2-[[(2S)-2-hydroxy-3-phenoxypropyl]amino]-propyl]phenyl]urea] |  |
|  | O=C(Nc1ccc(C[C@@H](CO)NC[C@H](O)COc2ccccc2)cc1)c1ccc[nH]1 [Test Compound (1), N-[4-[(2S)-3-Hydroxy-2-[[(2S)-2-hydroxy-3-phenoxypropyl)amino]propyl]phenyl]-1H-pyrrole-2-carboxamide] | 2.6 ± 0.05 mmHg |
